Assay [1] deals with Lep^ob/ob mice. In words: Blood glucose in Lep ob/ob mice with hepatic PGC-1α knockdown. The format is in vivo. The conditions noted are these: shPGC-1α adenovirus. The protocol: Virus was introduced to mice through the tail vein injection. Virus was thawed before injection and the desired amount of virus was diluted with saline to a final volume of 100 μL per mouse. Each mouse was injected with 6*10^7 pfu/g. SR-18292 treatment started on day 5 post infection.
In addition, liver toxicity, as measured by serum levels of alanine transaminase (ALT), aspartate aminotransferase (AST), lactate dehydrogenase (LDH) and bilirubin, was not observed in mice treated with SR-18292 (Table 6). […] To assess the contribution of PGC-1α in mediating the in vivo effects of SR-18292, hepatic PGC-1α in Lep^ob/ob mice was depleted using shRNA and observed a significant reduction in basal blood glucose concentrations compared to control. […] To fully assess the effects of SR-18292 on whole body glucose homeostasis and insulin resistance, a glucose tolerance test (GTT) and insulin tolerance test (ITT) were performed following the same protocol used to determine fasting blood glucose. […] As expected, insulin levels after GTT were lower in the treated group (FIG. 51). […] To test if SR-18292 chronic treatment will cause similar anti-diabetic effects, mice were treated for a period of 14 days.

In assay [2] the target is T1, PGC-1α (Mus musculus, UniProt O70343).
T1 sequence (O70343 1-797): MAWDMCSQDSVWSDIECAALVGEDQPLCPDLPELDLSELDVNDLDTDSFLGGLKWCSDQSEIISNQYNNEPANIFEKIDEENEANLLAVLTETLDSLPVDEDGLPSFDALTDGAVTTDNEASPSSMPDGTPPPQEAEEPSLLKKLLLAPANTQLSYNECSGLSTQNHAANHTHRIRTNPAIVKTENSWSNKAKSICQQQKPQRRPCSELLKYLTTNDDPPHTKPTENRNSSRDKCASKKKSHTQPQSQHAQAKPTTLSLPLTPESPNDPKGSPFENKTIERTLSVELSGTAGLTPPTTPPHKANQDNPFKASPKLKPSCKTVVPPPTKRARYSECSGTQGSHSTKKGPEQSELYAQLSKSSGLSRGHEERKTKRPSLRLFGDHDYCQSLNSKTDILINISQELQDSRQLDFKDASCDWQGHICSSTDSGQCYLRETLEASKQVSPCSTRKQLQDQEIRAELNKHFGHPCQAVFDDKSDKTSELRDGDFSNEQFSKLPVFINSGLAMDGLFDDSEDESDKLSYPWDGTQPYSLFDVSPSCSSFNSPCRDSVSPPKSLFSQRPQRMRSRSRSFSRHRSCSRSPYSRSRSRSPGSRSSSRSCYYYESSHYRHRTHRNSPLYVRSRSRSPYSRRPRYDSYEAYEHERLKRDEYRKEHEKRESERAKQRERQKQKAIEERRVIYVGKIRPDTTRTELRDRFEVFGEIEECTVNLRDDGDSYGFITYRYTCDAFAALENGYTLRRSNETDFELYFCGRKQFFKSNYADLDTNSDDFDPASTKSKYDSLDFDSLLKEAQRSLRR
The assay is described as follows: Mass spectrometry of acetylated PGC-1α lysine residues. In kind it is cell-based. The arrangement: expressed in transfected cells; host or cells: U-2 OS cells infected with Ad-PGC-1α and Ad-GCN5. The following applies: U-2 OS, Ad-PGC-1α and Ad-GCN5, 18 h. The protocol: Gel bands were dehydrated with acetonitrile, dried and resuspended in 50 mM ammonium bicarbonate (pH 8.0) containing 500 ng of sequencing-grade trypsin (Promega) and incubated at 37° C. for 8 hours. Digested samples were then loaded onto StageTips and desalted. Peptides were eluted with 50% acetonitrile, 5% formic acid, dried using a Speed-Vac apparatus, and resuspended in 25 μl of HEPES, pH 8.5. Peptides were labeled with 6-plex tandem mass tag (TMT) reagents (Thermo Scientific, Rockford, Ill.). After 1 hour of incubation at room temperature, the reaction was quenched with hydroxylamine and acidification with formic acid to pH˜2. TMT labeled peptides were combined, desalted by StageTips, dried and resuspended in 10 μl of 1% formic acid. All spectra were acquired using an Oribtrap Fusion mass spectrometer (Thermo Scientific) in line with an Easy-nLC 1200 (Thermo Fisher Scientific) ultra-high pressure liquid chromatography (UHPLC) pump. […] For MS3 based TMT quantitation, MS2 spectra were collected at an AGC of 4000, max injection time of 150 ms, and CID collision energy set at 35%. […] For quantification, a 0.03 m/z window centered on the theoretical DA value of each reporter ion was utilized for the nearest maximal signal intensity. […]

The record followed here is US11247970B2, “Selective inhibition of gluconeogenic activity” (Dana-Farber Cancer Institute, Inc., priority 2017, dated 2022).

As for `Cc1ccc(CN(CC(O)COc2cccc3[nH]ccc23)C(C)(C)C)cc1` (centres unmarked) [SR-18292, 1-((1H-indol-4-yl)oxy)-3-(tert-butyl(4-methylbenzyl)amino)propan-2-ol], the “SR-18292-mediated reduction in blood glucose with reduced hepatic PGC-1α” value in assay [1] was “blunted SR-18292-mediated reductions in blood glucose concentrations”. Further, the “number of PGC-1α lysine residues with increased acetylation” value in assay [2] came out at 7.
